This is an account of results in article PMC9691607 (Journal of medicinal chemistry, 2022).

The term IC50 denotes the concentration that gives 50% inhibition.

SMILES strings stand for the structures.

For one experiment, the system named is HDAC1. To be noted: read-out: HDAC1 IC50; Sandrone et al., different substrates; ref [47]; cited from earlier work.
The test system of a further experiment is HDAC6. To be noted: ref [47], cited from earlier work; for IC50: read-out: HDAC6 IC50, Sandrone et al., different substrates; for SI (IC50 (HDAC1)/IC50 (HDAC6)): selectivity index HDAC1/6, Sandrone et al.
Another experiment addresses T1, human HDAC6 (Homo sapiens, UniProt Q9UBN7).
T1 sequence (Q9UBN7 1-1215): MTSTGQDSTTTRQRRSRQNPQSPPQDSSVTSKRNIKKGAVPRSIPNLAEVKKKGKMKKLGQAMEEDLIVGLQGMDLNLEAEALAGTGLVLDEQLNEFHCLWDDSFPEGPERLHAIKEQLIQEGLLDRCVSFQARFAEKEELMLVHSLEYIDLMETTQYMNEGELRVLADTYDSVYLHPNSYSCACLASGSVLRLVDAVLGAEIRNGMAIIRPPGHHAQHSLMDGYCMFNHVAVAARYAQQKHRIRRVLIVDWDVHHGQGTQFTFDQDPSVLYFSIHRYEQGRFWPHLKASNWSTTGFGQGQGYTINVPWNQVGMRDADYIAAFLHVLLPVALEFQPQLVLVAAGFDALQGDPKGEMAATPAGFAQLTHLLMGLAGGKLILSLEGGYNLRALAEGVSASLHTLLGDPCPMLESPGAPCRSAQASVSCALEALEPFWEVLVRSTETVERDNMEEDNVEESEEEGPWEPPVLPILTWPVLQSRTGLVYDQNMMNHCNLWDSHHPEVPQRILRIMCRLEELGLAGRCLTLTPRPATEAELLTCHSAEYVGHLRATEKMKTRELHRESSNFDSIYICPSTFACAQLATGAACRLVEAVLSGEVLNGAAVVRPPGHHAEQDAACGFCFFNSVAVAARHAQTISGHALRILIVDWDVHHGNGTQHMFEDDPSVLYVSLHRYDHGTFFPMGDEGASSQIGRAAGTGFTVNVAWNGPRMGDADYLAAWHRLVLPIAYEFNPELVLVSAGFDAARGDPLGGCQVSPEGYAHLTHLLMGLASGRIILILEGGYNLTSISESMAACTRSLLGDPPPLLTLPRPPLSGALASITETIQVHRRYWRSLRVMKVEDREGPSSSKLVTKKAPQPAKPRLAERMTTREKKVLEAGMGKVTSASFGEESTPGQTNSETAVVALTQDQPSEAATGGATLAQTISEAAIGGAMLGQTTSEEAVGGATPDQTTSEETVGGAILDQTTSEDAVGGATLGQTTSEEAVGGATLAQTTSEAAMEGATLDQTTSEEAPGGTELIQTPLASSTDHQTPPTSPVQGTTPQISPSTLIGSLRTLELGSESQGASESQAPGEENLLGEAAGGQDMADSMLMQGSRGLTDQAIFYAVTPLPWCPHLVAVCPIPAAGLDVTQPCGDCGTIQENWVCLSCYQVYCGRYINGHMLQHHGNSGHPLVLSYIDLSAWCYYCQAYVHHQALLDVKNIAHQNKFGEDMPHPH
The experiment is described as follows: HDAC6 inhibition assay. The experiment is classed as biochemical. The conditions noted are these: selectivity index HDAC1/6.

A further experiment deals with HL60. The experiment is described as follows: Combinatorial drug screening with decitabine, HL60. The class given is cell-based. To be noted: combination with decitabine, HL60, 72 h co-treatment.
For another experiment, the system named is MOLM13. Briefly: Combinatorial drug screening with decitabine, MOLM13. To be noted: combination with decitabine, MOLM13, 72 h co-treatment. The experiment is classed as cell-based.
The next experiment relates to HAL01. Briefly: Combinatorial drug screening with decitabine, HAL01. To be noted: combination with decitabine, HAL01, 72 h co-treatment. The class given is cell-based.
In another experiment the test system is Jurkat. The experiment is described as follows: Combinatorial drug screening with decitabine, Jurkat. The experiment is classed as cell-based. To be noted: combination with decitabine, 72 h co-treatment.
Experiment [1] deals with HL60 cells. The experiment is described as follows: Annexin V / PI apoptosis assay. The experiment is classed as cell-based. To be noted: 1 μM or 5 μM, 48 h, annexin V and propidium iodide, flow cytometry. For orientation: In flow cytometry, cells or beads pass a laser one at a time.
In experiment [2] the test system is HL60 cells. Briefly: Immunoblotting of acetyl-α-tubulin and acetyl-histone H3. The conditions noted are these: 24 h; for acetylation of histone 3 (Ac-H3) / acetylation of α-tubulin: IC12.5-IC75 concentrations (ricolinostat at its IC50). The experiment is classed as cell-based. For orientation: Immunoblotting shows a protein as a band on a membrane.
Another experiment deals with leukemia cell lines. The experiment is classed as cell-based. To be noted: broad range of leukemia cell lines from therapy refractory subgroups; two healthy human fibroblast controls; values in Supplementary Table S1.
The next experiment deals with HDAC4 (Homo sapiens, UniProt P56524). Briefly: HDAC4 inhibition assay. The experiment is classed as biochemical.
HDAC4, sequence (P56524 627-1084 limits assumed): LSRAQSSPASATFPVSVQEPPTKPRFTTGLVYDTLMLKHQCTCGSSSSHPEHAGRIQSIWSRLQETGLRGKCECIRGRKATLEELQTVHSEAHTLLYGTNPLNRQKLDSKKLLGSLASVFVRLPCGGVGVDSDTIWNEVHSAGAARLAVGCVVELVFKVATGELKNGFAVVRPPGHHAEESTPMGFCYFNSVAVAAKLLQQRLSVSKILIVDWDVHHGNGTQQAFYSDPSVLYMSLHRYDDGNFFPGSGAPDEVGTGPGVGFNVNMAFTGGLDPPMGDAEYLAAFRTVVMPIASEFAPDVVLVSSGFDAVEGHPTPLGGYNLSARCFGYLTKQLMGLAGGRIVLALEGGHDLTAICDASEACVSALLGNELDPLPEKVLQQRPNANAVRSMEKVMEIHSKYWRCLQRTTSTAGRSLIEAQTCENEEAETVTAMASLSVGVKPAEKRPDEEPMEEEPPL

Take `O=C(NO)c1cccc(F)c1` [3-fluoro-N-hydroxybenzamide]: in the experiment on HDAC1, the IC50 was 29400 nM. Moreover, in the experiment on HDAC6, the half-maximal inhibitory concentration (IC50) was 453 nM and the “SI (IC50 (HDAC1)/IC50 (HDAC6))” value is recorded as 65.
Turning to `Cc1cc(C)cc(C(=O)N(CC(=O)NCc2ccccc2)Cc2ccc(C(=O)NO)cc2F)c1` [Compound 10g, 4-({N-[(Benzylcarbamoyl)methyl]-1-(3,5-dimethylphenyl)formamido}methyl)-3-fluoro-N-hydroxybenzamide], the “SI (IC50 (HDAC1)/IC50 (HDAC6))” value at human HDAC6 is 6–24.
On to `CN(C)c1ccc(C(=O)N(CC(=O)NCc2ccccc2)Cc2ccc(C(=O)NO)cc2F)cc1` [Compound 10h, 4-({N-[(Benzylcarbamoyl)methyl]-1-[4-(dimethylamino)phenyl]formamido}methyl)-3-fluoro-N-hydroxybenzamide], for which the ZIP synergy score in the experiment with HL60 was 25.08; with MOLM13, 27.44; in the experiment with HAL01, 1.18; with Jurkat it was −0.87. The induction of apoptosis entry with HL60 cells [1] is reported as “significant (p < 0.0001) increase in apoptotic cells”. Further, the “acetylation of histone 3 (Ac-H3)” value with HL60 cells [2] is reported as “dose-dependent increase”. In addition, the “acetylation of α-tubulin” value in the experiment on HL60 cells [2] was “dose-dependent increase”. For the same compound, the “acetylation of H3 on co-administration with decitabine” value with HL60 cells [2] (combination with decitabine vs mono-treatment) is recorded as “strong induction of acetylation of H3 as compared to mono-treatment”. For the same compound, the “cellular viability of leukemia cell lines” value in the experiment with leukemia cell lines is “markedly outperformed CI994 and ricolinostat”.
Turning to `CC(C)c1ccccc1C(=O)N(CC(=O)NC(C)(C)C)Cc1ccc(C(=O)NO)cc1F` [Compound 10p, 4-({N-[(tert-Butylcarbamoyl)methyl]-1-[2-(propan-2-yl)phenyl]formamido}methyl)-3-fluoro-N-hydroxybenzamide], the ZIP synergy score with HL60 was found to be 7.78; in the experiment with MOLM13 it was 7.18. The induction of apoptosis result in the experiment with HL60 cells [1] was “weaker (in comparison to 10h) although significant (p < 0.05) apoptosis induction”. Also, the “acetylation of histone 3 (Ac-H3)” value in the experiment with HL60 cells [2] is “no effect on Ac-H3 levels”. The “acetylation of α-tubulin” value with HL60 cells [2] is reported as “induced acetylation of α-tubulin”. Besides, the “cellular viability of leukemia cell lines” value in the experiment with leukemia cell lines was “IC50 values ranging in the high micromolar concentration”.
`CN(C)c1ccc(C(=O)N(CC(=O)NCc2ccccc2)Cc2ccc(C(=O)NO)cc2)cc1` [DDK137] gave an IC50 against HDAC4 of 2670 nM.
As for `O=C(NO)c1ccccc1` [N-hydroxybenzamide], in the experiment on HDAC1, the IC50 was 25400 nM. For the same compound, in the experiment on HDAC6, the 50% inhibitory concentration (IC50) is 1340 nM and the “SI (IC50 (HDAC1)/IC50 (HDAC6))” value is recorded as 19.
With `O=C(CCCCCCNC(=O)c1cnc(N(c2ccccc2)c2ccccc2)nc1)NO` [Ricolinostat, ricolinostat, reference compound], in the experiment on HL60 cells [2], the “acetylation of histone 3 (Ac-H3)” value is recorded as “lower Ac-H3 levels than observed for 10h” and the “acetylation of α-tubulin” value is reported as “prominent acetylation of α-tubulin”.
